We go through 29 molecules from patent US20090099195A1 (ASTRAZENECA AB, priority 2007, published 2009).

Molecules are shown by their SMILES.

The assay has as its target T1, hP2X3 (human Purinergic P2X receptors subtype 3), clone B (Homo sapiens, UniProt P56373).
T1 sequence (P56373 1-397): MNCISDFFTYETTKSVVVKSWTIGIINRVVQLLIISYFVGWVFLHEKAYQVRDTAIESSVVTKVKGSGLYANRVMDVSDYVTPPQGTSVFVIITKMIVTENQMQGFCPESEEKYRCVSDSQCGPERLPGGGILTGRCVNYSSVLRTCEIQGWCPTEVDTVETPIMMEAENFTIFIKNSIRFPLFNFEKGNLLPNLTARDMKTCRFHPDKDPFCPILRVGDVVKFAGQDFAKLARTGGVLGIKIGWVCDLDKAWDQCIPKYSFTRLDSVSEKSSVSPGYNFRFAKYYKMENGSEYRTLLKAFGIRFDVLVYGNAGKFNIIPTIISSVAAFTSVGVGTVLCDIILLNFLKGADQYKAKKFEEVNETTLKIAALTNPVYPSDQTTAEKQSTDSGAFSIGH
Briefly: hP2X3 FLIPR calcium (Fluo-4) antagonist assay, clone B. Particulars: Human P2X3 FLIPR Clone B IC50 (nM), RLE cells expressing hP2X3 clone B (NM_002559); agonist 500 nM α,β-methylene-ATP.
Turning to `CCOc1ccc([C@@H](C)Nc2nc(N3CCN(C(C)=O)CC3)nc3c2CN(C(C)C)C3=O)c(C)c1` [Example 168, (R)-2-(4-acetylpiperazin-1-yl)-4-(1-(4-ethoxy-2-methylphenyl)ethylamino)-6-isopropyl-5H-pyrrolo[3,4-d]pyrimidin-7(6H)-one], the IC50 was 80 nM.
As for `CC(=O)N1CCN(c2nc(N[C@H](C)c3ccc4c(c3)CCC(C)(C)O4)c3c(n2)C(=O)N(C(C)C)C3)CC1` [Example 169, (R)-2-(4-acetylpiperazin-1-yl)-4-(1-(2,2-dimethylchroman-6-yl)ethylamino)-6-isopropyl-5H-pyrrolo[3,4-d]pyrimidin-7(6H)-one], the IC50 was determined as 51 nM.
Turning to `CC(=O)N1CCN(c2nc(N[C@H](C)c3ccc(C)c(C)c3)c3c(n2)C(=O)N(C(C)C)C3)CC1` [Example 170, (R)-2-(4-acetylpiperazin-1-yl)-4-(1-(3,4-dimethylphenyl)ethylamino)-6-isopropyl-5H-pyrrolo[3,4-d]pyrimidin-7(6H)-one], the IC50 is 96 nM.
With `CC(=O)N1CCN(c2nc(N[C@H](C)c3ccc(Cl)c(C(F)(F)F)c3)c3c(n2)C(=O)N(C(C)C)C3)CC1` [Example 171, (R)-2-(4-acetylpiperazin-1-yl)-4-(1-(4-chloro-3-(trifluoromethyl)phenyl)ethylamino)-6-isopropyl-5H-pyrrolo[3,4-d]pyrimidin-7(6H)-one] the figure was 290 nM; with `CC(=O)N1CCN(c2nc(N[C@H](C)c3ccc4c(c3)CCC4)c3c(n2)C(=O)N(C(C)C)C3)CC1` [Example 172, (R)-2-(4-acetylpiperazin-1-yl)-4-(1-(2,3-dihydro-1H-inden-5-yl)ethylamino)-6-isopropyl-5H-pyrrolo[3,4-d]pyrimidin-7(6H)-one], 44 nM; with `CCOc1ccccc1[C@@H](C)Nc1nc(N2CCN(C(C)=O)CC2)nc2c1CN(C(C)C)C2=O` [Example 173, (R)-2-(4-acetylpiperazin-1-yl)-4-(1-(2-ethoxyphenyl)ethylamino)-6-isopropyl-5H-pyrrolo[3,4-d]pyrimidin-7(6H)-one], 5400 nM.
`CCOc1cc([C@@H](C)Nc2nc(N3CCN(C(C)=O)CC3)nc3c2CN(C(C)C)C3=O)ccc1C` [Example 174, (R)-2-(4-acetylpiperazin-1-yl)-4-(1-(3-ethoxy-4-methylphenyl)ethylamino)-6-isopropyl-5H-pyrrolo[3,4-d]pyrimidin-7(6H)-one]: the IC50 worked out at 600 nM.
With `CC(=O)N1CCN(c2nc(N[C@H](C)c3ccc(OC(C)C)cc3)c3c(n2)C(=O)N(C(C)C)C3)CC1` [Example 176, (R)-2-(4-acetylpiperazin-1-yl)-4-(1-(4-isopropoxyphenyl)ethylamino)-6-isopropyl-5H-pyrrolo[3,4-d]pyrimidin-7(6H)-one] the figure was 80 nM; with `COc1ccccc1CC(C)(C)Nc1nc(N2CCN(C(C)=O)CC2)nc2c1CN(C(C)C)C2=O` [Example 195, 2-(4-acetylpiperazin-1-yl)-6-isopropyl-4-(1-(2-methoxyphenyl)-2-methylpropan-2-ylamino)-5H-pyrrolo[3,4-d]pyrimidin-7(6H)-one], 18000 nM; with `CC(=O)N1CCN(c2nc(NC(C)(C)Cc3ccccc3C)c3c(n2)C(=O)N(C(C)C)C3)CC1` [Example 197, 2-(4-acetylpiperazin-1-yl)-6-isopropyl-4-(2-methyl-1-o-tolylpropan-2-ylamino)-5H-pyrrolo[3,4-d]pyrimidin-7(6H)-one], 1900 nM.
With `CC(=O)N1CCN(c2nc(NCC3OCCc4ccccc43)c3c(n2)C(=O)N(C(C)C)C3)CC1` (centres unmarked) [Example 205, 2-(4-acetylpiperazin-1-yl)-4-(isochoman-1-ylmethylamino)-6-isopropyl-5H-pyrrolo[3,4-d]pyrimidin-7(6H)-one] the figure was 5300 nM; with `CC(C)N1Cc2c(NCc3cnc4ccccc4c3)nc(N3CCNC(=O)C3)nc2C1=O` [Example 206, 6-isopropyl-2-(3-oxopiperazin-1-yl)-4-(quinolin-3-ylmethylamino)-5H-pyrrolo[3,4-d]pyrimidin-7(6H)-one], 3200 nM; with `CC(=O)NC1CCN(c2nc(NCc3cnc4ccccc4c3)c3c(n2)C(=O)N(C(C)C)C3)C1` (centres unmarked) [Example 207, N-(1-(6-isopropyl-7-oxo-4-(quinolin-3-ylmethylamino)-6,7-dihydro-5H-pyrrolo[3,4-d]pyrimidin-2-yl)pyrrolidin-3-yl)acetamide], 7100 nM.
With `CC(C)N1Cc2c(NCc3cnc4ccccc4c3)nc(N3CCC(C(N)=O)CC3)nc2C1=O` [Example 209, 1-(6-isopropyl-7-oxo-4-(quinolin-3-ylmethylamino)-6,7-dihydro-5H-pyrrolo[3,4-d]pyrimidin-2-yl)piperidine-4-carboxamide] the figure was 2800 nM; with `CC(C)N1Cc2c(NCc3cnc4ccccc4c3)nc(N3CCN(C)C(=O)C3)nc2C1=O` [Example 210, 6-isopropyl-2-(4-methyl-3-oxopiperazin-1-yl)-4-(quinolin-3-ylmethylamino)-5H-pyrrolo[3,4-d]pyrimidin-7(6H)-one], 320 nM; with `CC(C)N1Cc2c(NCc3cnc4ccccc4c3)nc(N3CCOCC3)nc2C1=O` [Example 211, 6-isopropyl-2-morpholino-4-(quinolin-3-ylmethylamino)-5H-pyrrolo[3,4-d]pyrimidin-7(6H)-one], 5100 nM.
For the molecule `CC(C)N1Cc2c(NCc3cnc4ccccc4c3)nc(N3CCCC3CN3CCOCC3)nc2C1=O` (centres unmarked) [Example 212, 6-isopropyl-2-[2-(morpholinomethyl)pyrrolidin-1-yl]-4-(3-quinolylmethylamino)-5H-pyrrolo[3,4-d]pyrimidin-7-one], the IC50 was 4600 nM.
Turning to `CC(C)N1Cc2c(NCc3cnc4ccccc4c3)nc(N3CCC(N(C)C)C3)nc2C1=O` (centres unmarked) [Example 213, 2-(3-dimethylaminopyrrolidin-1-yl)-6-isopropyl-4-(3-quinolylmethylamino)-5H-pyrrolo[3,4-d]pyrimidin-7-one], the IC50 came out at 1100 nM.
Consider `CC(C)N1Cc2c(NCc3cnc4ccccc4c3)nc(NC3CN4CCC3CC4)nc2C1=O` (centres unmarked) [Example 214, 6-isopropyl-4-(3-quinolylmethylamino)-2-(quinuclidin-3-ylamino)-5H-pyrrolo[3,4-d]pyrimidin-7-one], for which the IC50 came out at 2300 nM.
As for `CC(C)N1Cc2c(NCc3cnc4ccccc4c3)nc(NCCS(C)(=O)=O)nc2C1=O` [Example 215, 6-isopropyl-2-(2-methylsulfonylethylamino)-4-(3-quinolylmethylamino)-5H-pyrrolo[3,4-d]pyrimidin-7-one], the IC50 was 2000 nM.
With `CC(C)N1Cc2c(NCc3cnc4ccccc4c3)nc(N3CCC(F)(F)C3)nc2C1=O` [Example 216, 2-(3,3-difluoropyrrolidin-1-yl)-6-isopropyl-4-(3-quinolymethylamino)-5H-pyrrolo[3,4-d]pyrimidin-7-one] the figure was 680 nM.
For `CC(C)N1Cc2c(NCc3cnc4ccccc4c3)nc(N(C)CC3CCCO3)nc2C1=O` (centres unmarked) [Example 217, 6-isopropyl-2-(methyl-(tetrahydrofuran-2-ylmethyl)amino)-4-(3-quinolylmethylamino)-5H-pyrrolo[3,4-d]pyrimidin-7-one], the IC50 is 5900 nM.
Regarding `CC(C)N1Cc2c(NCc3cnc4ccccc4c3)nc(N3CCC(N(C)C)CC3)nc2C1=O` [Example 218], the IC50 was found to be 7800 nM.
Then `CC(C)N1Cc2c(NCc3cnc4ccccc4c3)nc(NCC3CCOCC3)nc2C1=O` [Example 219, 6-(1-methylethyl)-4-[(quinolin-3-ylmethyl)amino]-2-[(tetrahydro-2H-pyran-4-ylmethyl)amino]-5,6-dihydro-7H-pyrrolo[3,4-d]pyrimidin-7-one], with 8400 nM; and `CC(C)N1Cc2c(NCc3cnc4ccccc4c3)nc(N(C)C)nc2C1=O` [Example 220, 2-(dimethylamino)-6-(1-methylethyl)-4-[(quinolin-3-ylmethyl)amino]-5,6-dihydro-7H-pyrrolo[3,4-d]pyrimidin-7-one], with 9600 nM; and `CC(C)N1Cc2c(NCc3cnc4ccccc4c3)nc(N3CCN(C(=O)N(C)C)CC3)nc2C1=O` [Example 221, N,N-dimethyl-4-{6-(1-methylethyl)-7-oxo-4-[(quinolin-3-ylmethyl)amino]-6,7-dihydro-5H-pyrrolo[3,4-d]pyrimidin-2-yl}piperazine-1-carboxamide], with 5800 nM.
Take `CC(C)N1Cc2c(NCc3cnc4ccccc4c3)nc(N3CCN(C(=O)C4CC4)CC3)nc2C1=O` [Example 222, 2-[4-(cyclopropylcarbonyl)piperazin-1-yl]-6-(1-methylethyl)-4-[(quinolin-3-ylmethyl)amino]-5,6-dihydro-7H-pyrrolo[3,4-d]pyrimidin-7-one]: the IC50 was found to be 6300 nM.
With `CCN1CCN(c2cc(C(F)(F)F)ccc2CNc2nc(N3CCN(C(C)=O)CC3)nc3c2CN(C(C)C)C3=O)CC1` [Example 223, 2-(4-acetylpiperazin-1-yl)-4-(2-(4-ethylpiperazin-1-yl)-4-(trifluoromethyl)benzylamino)-6-isopropyl-5H-pyrrolo[3,4-d]pyrimidin-7(6H)-one] the figure was 620 nM; with `CC(=O)N1CCN(c2nc(NC3CCN(c4cccc(C)c4)C3)c3c(n2)C(=O)N(C(C)C)C3)CC1` (centres unmarked) [Example 224, 2-(4-acetylpiperazin-1-yl)-6-isopropyl-4-(1-m-tolylpyrrolidin-3-ylamino)-5H-pyrrolo[3,4-d]pyrimidin-7(6H)-one], 4100 nM.

The term IC50 denotes the midpoint of a concentration-inhibition curve.
